# Test results reported in US7282491B2, “Prokaryotic proteasomal proteases of Mycobacterium tuberculosis (MTB) as targets for antibiotic therapy” (Cornell Research Foundation, Inc., priority 2002, dated 2007).
# Columns and labels:
# wt Mtb [1] = format: cell-based, Mycobacterium tuberculosis; details: for augmentation of anti-mycobacterial activity of nitrite, inhibitor added along with nitrite at day 0: pH 6.5
# wt Mtb [2] = format: cell-based, Mycobacterium tuberculosis
# mycobacterial proteasome = mycobacterial proteasome (Mycobacterium tuberculosis, UniProt P9WHT9); details: tetrapeptide substrate, 0.05% SDS; FIG. 11A
# Sequence of mycobacterial proteasome (P9WHT9 58-291): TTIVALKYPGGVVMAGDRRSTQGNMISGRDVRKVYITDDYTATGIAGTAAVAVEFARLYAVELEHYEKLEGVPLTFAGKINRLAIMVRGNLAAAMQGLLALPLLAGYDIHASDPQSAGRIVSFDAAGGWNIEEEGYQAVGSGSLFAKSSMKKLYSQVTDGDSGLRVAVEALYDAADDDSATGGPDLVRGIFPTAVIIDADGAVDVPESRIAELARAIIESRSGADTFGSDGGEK
# Sequence of mycobacterial proteasome (P9WHU1 whole entry partner): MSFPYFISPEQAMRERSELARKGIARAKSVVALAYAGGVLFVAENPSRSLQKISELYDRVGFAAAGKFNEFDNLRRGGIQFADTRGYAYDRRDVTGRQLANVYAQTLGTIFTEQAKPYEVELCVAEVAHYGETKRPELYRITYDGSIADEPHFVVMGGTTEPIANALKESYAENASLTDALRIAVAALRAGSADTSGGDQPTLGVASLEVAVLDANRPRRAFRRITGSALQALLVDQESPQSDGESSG
# Protocol: To measure proteasomal protease activity, Mtb was lysed by agitation with zirconia silica beads. The soluble fraction was filtered through a 0.45 micron filter. Aliquots of the filtrate (120 g protein) were incubated with succinyl-leu-leu-val-tyr-alpha-methylcoumarin (SEQ ID NO: 1) in the presence of 0.05% SDS and fluorescence was monitored. […] The 50% inhibitory concentration was determined by applying the Hill equation to data from 2 experiments, each in triplicate.
# wt Mtb [3] = system: wt Mtb
# tubercle bacilli = details: cited from earlier work
SMILES,"augmentation of anti-mycobacterial activity of nitrite, inhibitor added only at the subculture (wt Mtb [1])","augmentation of the mycobacteriacidal effect of nitrite, inhibitors and nitrite removed simultaneously (wt Mtb [1])","augmentation of anti-mycobacterial activity of nitrite, inhibitor added along with nitrite at day 0 (wt Mtb [1])",growth of Mtb under standard culture conditions (wt Mtb [2]),augmentation of nitrite-mediated injury of wt Mtb (wt Mtb [1]),inhibition of proteasomal protease activity in Mtb lysates (mycobacterial proteasome),outgrowth of Mtb in culture after nitrite (wt Mtb [3]),potency of killing tubercle bacilli in vitro (tubercle bacilli)
CC[C@H](C)[C@H](NC(=O)[C@H]([C@@H](C)CC)N(C)C(C)=O)C(=O)N[C@H](C(=O)N[C@@H](CC(C)C)C(=O)[C@@]1(C)CO1)[C@@H](C)O [epoxomicin],just as effective,augmented the mycobacteriacidal effect of nitrite,increased the anti-mycobacterial activity of nitrite,,,,,
"CC(C)C[C@H](NC(=O)[C@H](Cc1cccc2ccccc12)NC(=O)N1CCOCC1)B(O)O [MLN-273, N-[4-morpholine]carbonyl-β-[1-naphthyl]-L-alanine-L-leucine boronic acid]",just as effective,did not,increased the anti-mycobacterial activity of nitrite,suppressed the growth of Mtb,augmented nitrite-mediated injury,potently blocked proteasomal protease activity,enhanced the ability of nitrite to suppress outgrowth of Mtb,
[N]=O [nitric oxide],,,,,,,,~150 nM
